Measured values taken from patent US8633206B2, “Pyrrolo[2,3-D]pyrimidine compounds” (Pfizer Inc., priority 2009, dated 2014).

How the values were obtained:
Assay type in all cases: biochemical
[1] = biological target: JAK1 (Homo sapiens (Human), UniProt P23458); experiment: JAK enzymatic assay (peptide mobility shift), JAK1; settings: recombinant JAK1 20 nM, IRS-1 peptide, 240 minutes
[2] = biological target: JAK2 (Homo sapiens (Human), UniProt O60674); experiment: JAK enzymatic assay (peptide mobility shift), JAK2; settings: recombinant JAK2 2 nM, JAKtide peptide, 150 minutes
JAK2, sequence (O60674 808-1132): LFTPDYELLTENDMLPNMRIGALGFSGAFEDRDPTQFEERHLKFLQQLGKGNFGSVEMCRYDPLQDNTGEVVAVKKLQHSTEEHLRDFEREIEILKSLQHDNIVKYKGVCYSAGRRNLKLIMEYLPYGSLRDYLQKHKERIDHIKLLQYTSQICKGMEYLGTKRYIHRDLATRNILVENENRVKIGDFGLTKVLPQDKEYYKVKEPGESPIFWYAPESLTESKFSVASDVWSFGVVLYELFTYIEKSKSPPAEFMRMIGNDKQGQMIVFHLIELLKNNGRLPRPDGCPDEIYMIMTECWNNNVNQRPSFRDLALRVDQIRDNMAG

[3] = biological target: JAK3 (Homo sapiens (Human), UniProt P52333); experiment: JAK enzymatic assay (peptide mobility shift), JAK3; settings: recombinant JAK3 1 nM, JAKtide peptide, 90 minutes
JAK3, sequence (P52333 781-1124): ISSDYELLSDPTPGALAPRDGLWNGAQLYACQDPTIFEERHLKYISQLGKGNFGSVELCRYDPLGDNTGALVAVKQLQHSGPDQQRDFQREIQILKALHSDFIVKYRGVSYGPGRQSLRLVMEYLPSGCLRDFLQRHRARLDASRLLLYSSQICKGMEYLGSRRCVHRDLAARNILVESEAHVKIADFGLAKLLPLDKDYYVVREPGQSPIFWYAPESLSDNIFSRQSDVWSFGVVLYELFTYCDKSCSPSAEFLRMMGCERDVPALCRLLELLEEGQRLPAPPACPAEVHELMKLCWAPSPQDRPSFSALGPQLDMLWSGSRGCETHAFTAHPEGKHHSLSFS

JAK1, sequence (P23458 whole entry): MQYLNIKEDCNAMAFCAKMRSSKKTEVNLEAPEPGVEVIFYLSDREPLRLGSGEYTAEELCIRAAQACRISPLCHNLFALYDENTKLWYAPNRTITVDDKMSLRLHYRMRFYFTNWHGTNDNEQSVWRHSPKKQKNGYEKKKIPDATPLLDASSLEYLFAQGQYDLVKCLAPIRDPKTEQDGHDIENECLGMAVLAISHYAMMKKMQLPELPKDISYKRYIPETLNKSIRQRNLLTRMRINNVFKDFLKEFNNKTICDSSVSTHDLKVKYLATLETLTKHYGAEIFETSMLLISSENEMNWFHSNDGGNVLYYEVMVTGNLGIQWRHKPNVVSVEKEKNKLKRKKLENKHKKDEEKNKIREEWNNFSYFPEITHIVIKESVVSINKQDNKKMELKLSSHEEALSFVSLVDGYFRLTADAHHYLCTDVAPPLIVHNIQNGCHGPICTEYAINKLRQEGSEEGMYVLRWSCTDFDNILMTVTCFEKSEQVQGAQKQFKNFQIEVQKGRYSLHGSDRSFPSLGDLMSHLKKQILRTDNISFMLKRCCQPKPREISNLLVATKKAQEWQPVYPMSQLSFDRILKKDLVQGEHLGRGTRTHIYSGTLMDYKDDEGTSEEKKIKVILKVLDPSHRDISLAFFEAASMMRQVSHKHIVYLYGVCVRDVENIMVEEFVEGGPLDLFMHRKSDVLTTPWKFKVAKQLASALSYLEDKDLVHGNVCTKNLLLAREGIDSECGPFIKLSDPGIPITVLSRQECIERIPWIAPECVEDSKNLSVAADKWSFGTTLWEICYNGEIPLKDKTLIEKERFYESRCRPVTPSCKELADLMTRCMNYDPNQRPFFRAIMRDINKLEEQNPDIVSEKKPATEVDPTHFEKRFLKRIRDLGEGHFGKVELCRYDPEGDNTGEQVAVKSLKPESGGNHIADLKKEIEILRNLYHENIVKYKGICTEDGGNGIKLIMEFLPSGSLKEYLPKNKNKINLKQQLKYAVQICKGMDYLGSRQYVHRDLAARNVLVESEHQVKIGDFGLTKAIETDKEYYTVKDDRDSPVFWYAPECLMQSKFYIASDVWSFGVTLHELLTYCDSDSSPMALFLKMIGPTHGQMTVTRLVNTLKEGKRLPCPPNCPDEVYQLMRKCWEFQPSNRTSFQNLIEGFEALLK

Compound | IC50 [1] [µM] | IC50 [2] [µM] | IC50 [3] [µM]
C[C@H]1CN(S(=O)(=O)C[C@H]2CC[C@H](N(C)c3ncnc4[nH]ccc34)CC2)C[C@@H]1CO [Example 80, {(3R,4R)-4-methyl-1-[({trans-4-[methyl(7H-pyrrolo[2,3-d]pyrimidin-4-yl)amino]cyclohexyl}-methyl)sulfonyl]pyrrolidin-3-yl}methanol] | 0.00303 | 0.0185 | 0.205
CNS(=O)(=O)[C@H]1CCN(S(=O)(=O)C[C@H]2CC[C@H](N(C)c3ncnc4[nH]ccc34)CC2)C1 [Example 81, N-methyl-1-[({trans-4-[methyl(7H-pyrrolo[2,3-d]-pyrimidin-4-yl)amino]-cyclohexyl}methyl)sulfonyl] pyrrolidine-3-sulfonamide] | 0.00278 | 0.0248 | 0.0906
CN(c1ncnc2[nH]ccc12)[C@H]1CC[C@H](CS(=O)(=O)N2CC[C@H](S(=O)(=O)Cc3ccccc3)C2)CC1 [Example 82, N-[trans-4-({[3-(benzyl-sulfonyl)pyrrolidin-1-yl]sulfonyl}-methyl)-cyclohexyl]-N-methyl-7H-pyrrolo[2,3-d]pyrimidin-4-amine] | 0.00734 | 0.0174 | 0.146
CN(c1ncnc2[nH]ccc12)[C@H]1CC[C@H](CS(=O)(=O)N2CC[C@H](S(=O)(=O)CCc3ccccc3)C2)CC1 [Example 83, N-methyl-N-{trans-4-[({3-[(2-phenylethyl)-sulfonyl]pyrrolidin-1-yl}sulfonyl)methyl]cyclo-hexyl}-7H-pyrrolo[2,3-d]pyrimidin-4-amine] | 0.00479 | 0.0167 | 0.133
CN(c1ncnc2[nH]ccc12)[C@H]1CC[C@H](CS(=O)(=O)N2CC[C@@](O)(COc3cccc(F)c3)C2)CC1 [Example 84, 3-[(3-fluorophenoxy)-methyl]-1-[({trans-4-[methyl(7H-pyrrolo[2,3-d]-pyrimidin-4-yl)amino]-cyclohexyl}methyl)sulfonyl] pyrrolidin-3-ol] | 0.00312 | 0.0262 | 0.132
Cc1cc(CC[C@]2(O)CCN(S(=O)(=O)C[C@H]3CC[C@H](N(C)c4ncnc5[nH]ccc45)CC3)C2)on1 [Example 85, 3-[2-(3-methylisoxazol-5-yl)ethyl]-1-[({trans-4-[methyl(7H-pyrrolo[2,3-d]-pyrimidin-4-yl)amino]-cyclohexyl}methyl)sulfonyl] pyrrolidin-3-ol] | 0.0105 | 0.0462 | 0.286
CN(c1ncnc2[nH]ccc12)[C@H]1CC[C@H](CS(=O)(=O)N2CC[C@H](c3ncccn3)C2)CC1 [Example 87, N-methyl-N-(trans-4-{[(3-pyrimidin-2-ylpyrrolidin-1-yl)sulfonyl]methyl}cyclo-hexyl)-7H-pyrrolo[2,3-d]pyrimidin-4-amine] | 0.00327 | 0.00572 | 0.0557
CN(c1ncnc2[nH]ccc12)[C@H]1CC[C@H](CS(=O)(=O)N2CC[C@H](Oc3ccccc3C#N)C2)CC1 [Example 88, 2-({(3S)-1-[({trans-4-[methyl(7H-pyrrolo[2,3-d]-pyrimidin-4-yl)amino]-cyclohexyl}methyl)sulfonyl]pyrrolidin-3-yl}oxy)-benzonitrile] | 0.00673 | 0.0234 | 0.413
COc1ccccc1CS(=O)(=O)[C@H]1CCN(S(=O)(=O)C[C@H]2CC[C@H](N(C)c3ncnc4[nH]ccc34)CC2)C1 [Example 89, N-{trans-4-[({3-[(2-methoxybenzyl)sulfonyl]-pyrrolidin-1-yl}sulfonyl)-methyl]cyclohexyl}-N-methyl-7H-pyrrolo[2,3-d]-pyrimidin-4-amine] | 0.00445 | 0.0175 | 0.0966
CN(c1ncnc2[nH]ccc12)[C@H]1CC[C@H](CS(=O)(=O)N2CC[C@@](O)(Cn3cccn3)C2)CC1 [Example 90, 1-[({trans-4-[methyl(7H-pyrrolo[2,3-d]pyrimidin-4-yl)amino]cyclohexyl}methyl)-sulfonyl]-3-(1H-pyrazol-1-ylmethyl)pyrrolidin-3-ol] | 0.0018 | 0.0093 | 0.0823
CN(c1ncnc2[nH]ccc12)[C@H]1CC[C@H](CS(=O)(=O)N2CC[C@@](O)(c3ccccc3)C2)CC1 [Example 91, 1-[({trans-4-[methyl(7H-pyrrolo[2,3-d]pyrimidin-4-yl)amino]cyclohexyl}-methyl)sulfonyl]-3-phenylpyrrolidin-3-ol] | 0.00192 | 0.0108 | 0.0766
CN(C(=O)OC(C)(C)C)[C@H]1CCN(S(=O)(=O)C[C@H]2CC[C@H](N(C)c3ncnc4[nH]ccc34)CC2)C1 [Example 92, tert-butyl methyl{(3S)-1-[({trans-4-[methyl(7H-pyrrolo[2,3-d]pyrimidin-4-yl)amino]cyclohexyl}methyl)-sulfonyl]pyrrolidin-3-yl}carbamate] | 0.00691 | 0.081 | 0.488
CN(c1ncnc2[nH]ccc12)[C@H]1CC[C@H](CS(=O)(=O)N2CC[C@H](c3ccccc3F)C2)CC1 [Example 93, N-[trans-4-({[3-(2-fluorophenyl)pyrrolidin-1-yl]sulfonyl}methyl)cyclo-hexyl]-N-methyl-7H-pyrrolo[2,3-d]pyrimidin-4-amine] | 0.0055 | 0.0374 | 0.286
CCc1ccc(COC[C@H]2CCN(S(=O)(=O)C[C@H]3CC[C@H](N(C)c4ncnc5[nH]ccc45)CC3)C2)nc1 [Example 94, N-(trans-4-{[(3-{[(5-ethylpyridin-2-yl)methoxy]-methyl}pyrrolidin-1-yl)-sulfonyl]methyl}-cyclohexyl)-N-methyl-7H-pyrrolo[2,3-d]pyrimidin-4-amine] | 0.0175 | 0.0636 | 0.678
CN(c1ncnc2[nH]ccc12)[C@H]1CC[C@H](CS(=O)(=O)N2CC[C@](CO)(CCO)C2)CC1 [Example 95, 2-{3-(hydroxymethyl)-1-[({trans-4-[methyl(7H-pyrrolo[2,3-d]pyrimidin-4-yl)amino]cyclohexyl}-methyl)sulfonyl]pyrrolidin-3-yl}-ethanol] | 0.0125 | 0.0458 | 0.612
CN(c1ncnc2[nH]ccc12)[C@H]1CC[C@H](CS(=O)(=O)N2CC[C@H](COCc3cccnc3)C2)CC1 [Example 96, N-methyl-N-{trans-4-[({3-[(pyridin-3-ylmethoxy)-methyl]pyrrolidin-1-yl}-sulfonyl)methyl]-cyclohexyl}-7H-pyrrolo[2,3-d]pyrimidin-4-amine] | 0.0193 | 0.0321 | 0.462
CN(c1ncnc2[nH]ccc12)[C@H]1CC[C@H](CS(=O)(=O)N2CC[C@@](O)(CSc3ccccn3)C2)CC1 [Example 97, 1-[({trans-4-[methyl(7H-pyrrolo[2,3-d]pyrimidin-4-yl)-amino]cyclohexyl}-methyl)sulfonyl]-3-[(pyridin-2-ylthio)-methyl]pyrrolidin-3-ol] | 0.00136 | 0.0131 | 0.0856
CN(c1ncnc2[nH]ccc12)[C@H]1CC[C@H](CS(=O)(=O)N2CC[C@H](OCC(=O)N3CCCC3)C2)CC1 [Example 98, N-methyl-N-[trans-4-({[3-(2-oxo-2-pyrrolidin-1-ylethoxy)pyrrolidin-1-yl]sulfonyl}methyl)cyclo-hexyl]-7H-pyrrolo[2,3-d]pyrimidin-4-amine] | 0.00437 | 0.0296 | 0.386
